Drawing on patent US20130131073A1, “FUSED-IMIDAZOYL COMPOUNDS USEFUL AS ANTIMICROBIAL AGENTS” (priority 2010, published 2013), this text covers MIC for 17 compounds.

Structures are written as SMILES. Converted amounts (≈) assume the structure as drawn.

In this test the test system is Staphylococcus aureus ATCC29213. Description: Broth microdilution susceptibility testing (MIC determination). In kind it is cell-based. As to conditions: Mueller Hinton broth, overnight incubation at 35° C., lowest concentration preventing visible growth, read-out: MIC Staph. aureus ATCC29213. The method, then:
Susceptibility testing (MIC determinations) was performed using the standard broth microdilution methodology precisely as described in the Clinical Laboratory Standards Institute Document M7-A6; Methods for Dilution Antimicrobial Susceptibility Tests for Bacteria That Grow Aerobically; Approved Standard- Sixth Edition (ISBN 1-56238-486-4), CLSI, 940 West Valley Road, Suite 1400, Wayne, Pa. 19087-1898 USA. To perform the test, a series of 0.1 ml media in a 96-well plate is prepared with Mueller Hinton broth to which various concentrations of the test compound are added. The media are then inoculated with a standardized suspension of the test organism, Staphylococcus aureus ATCC29213. After overnight incubation at 35° C., the tests are examined and the minimal inhibitory concentration (MIC) is determined. MIC is defined as the lowest concentration of an antimicrobial agent that prevents visible growth of a microorganism in the broth microdilution susceptibility test
`CC(c1ccccc1)N1CCN(C(=O)CNc2c(-c3ccc(OC(F)(F)F)cc3)nc3cnccn23)CC1` (centres unmarked) [compound 295]: the MIC (usually the lowest concentration that inhibits growth of the organism) was determined as 10 µg/mL (≈ 19.1 µM). For `Cc1cccc(N2CCN(C(=O)CNc3c(-c4ccc(OC(F)(F)F)cc4)nc4cnccn34)CC2)c1C` [compound 276] the value was 10 µg/mL (≈ 19.1 µM); for `CC(Nc1c(-c2ccc(OC(F)(F)F)cc2)nc2cnccn12)C(=O)N1CCN(C)CC1` (centres unmarked) [compound 184], 5 µg/mL (≈ 11.1 µM); for `O=C(CNc1c(-c2ccc(OC(F)(F)F)cc2)nc2cnccn12)N1CCN(C(=O)OCc2ccccc2)CC1` [compound 275], 10 µg/mL (≈ 18 µM).

Turning to `COc1cc(OC)nc(CN2CCN(C(=O)CNc3c(-c4ccc(OC(F)(F)F)cc4)nc4cnccn34)CC2)n1` [compound 280], the MIC was 10 µg/mL (≈ 17.5 µM). The result for `O=C(CNc1c(-c2ccc(OC(F)(F)F)cc2)nc2cnccn12)N1CCN(CCC2CCCCC2)CC1` [compound 277] reads 2.5 µg/mL (≈ 4.71 µM); that for `Cc1cccc(C)c1N1CCN(C(=O)CNc2c(-c3ccc(N(C)C)cc3)nc3cnccn23)CC1` [compound 26], 2 µg/mL (≈ 4.14 µM); that for `C=CCN1CCN(C(=O)C(C)Nc2c(-c3ccc(OC(F)(F)F)cc3)nc3cnccn23)CC1` (centres unmarked) [compound 189], 5 µg/mL (≈ 10.5 µM). The result for `Cc1cccc(N2CCN(C(=O)C(C)Nc3c(-c4ccc(OC(F)(F)F)cc4)nc4cnccn34)CC2C)c1` (centres unmarked) [compound 318] reads 10 µg/mL (≈ 18.6 µM); that for `O=C(CNc1c(-c2ccc(OC(F)(F)F)cc2)nc2cnccn12)N1CCN(c2nc(-c3ccccc3)ns2)CC1` [compound 282], 5 µg/mL (≈ 8.61 µM); that for `O=C(CNc1c(-c2ccc(OC(F)(F)F)cc2)nc2cnccn12)N1CCN(c2ccccc2Cl)CC1` [compound 270], 10 µg/mL (≈ 18.8 µM). As for `COCCCN1CCN(C(=O)CNc2c(-c3ccc(OC(F)(F)F)cc3)nc3cnccn23)CC1` [compound 281], the MIC came to 5 µg/mL (≈ 10.2 µM). For `O=C(CNc1c(-c2ccc(OC(F)(F)F)cc2)nc2cnccn12)N1CCN(c2ccncc2)CC1` [compound 269] the value was 1.25 µg/mL (≈ 2.51 µM).

Take `CC(=O)N1CCN(C(=O)C(C)Nc2c(-c3ccc(N(C)C)cc3)nc3cnccn23)CC1` (centres unmarked) [compound 102]: the minimal inhibitory concentration (MIC) worked out at 1.25 µg/mL (≈ 2.87 µM). For `O=C(CNc1c(-c2ccc(OC(F)(F)F)cc2)nc2cnccn12)N1CCN(c2c(Cl)cncc2Cl)CC1` [compound 274] the value was 0.08 µg/mL (≈ 0.141 µM); for `CN(C)c1ccc(-c2nc3cnccn3c2NCC(=O)N2CCN(c3c(Cl)cncc3Cl)CC2)cc1` [compound 31], 0.08 µg/mL (≈ 0.152 µM); for `CN1CCN(C(=O)CNc2c(-c3ccc(OC(F)(F)F)cc3)nc3cnccn23)CC1` [compound 268], 10 µg/mL (≈ 23 µM).
